The source of these data is paper PMC5053890 (Bioorganic & medicinal chemistry, 2016).

For this assay, the target named is T1, GVIA iPLA2 (Homo sapiens, UniProt O60733).
T1 sequence (O60733 1-806): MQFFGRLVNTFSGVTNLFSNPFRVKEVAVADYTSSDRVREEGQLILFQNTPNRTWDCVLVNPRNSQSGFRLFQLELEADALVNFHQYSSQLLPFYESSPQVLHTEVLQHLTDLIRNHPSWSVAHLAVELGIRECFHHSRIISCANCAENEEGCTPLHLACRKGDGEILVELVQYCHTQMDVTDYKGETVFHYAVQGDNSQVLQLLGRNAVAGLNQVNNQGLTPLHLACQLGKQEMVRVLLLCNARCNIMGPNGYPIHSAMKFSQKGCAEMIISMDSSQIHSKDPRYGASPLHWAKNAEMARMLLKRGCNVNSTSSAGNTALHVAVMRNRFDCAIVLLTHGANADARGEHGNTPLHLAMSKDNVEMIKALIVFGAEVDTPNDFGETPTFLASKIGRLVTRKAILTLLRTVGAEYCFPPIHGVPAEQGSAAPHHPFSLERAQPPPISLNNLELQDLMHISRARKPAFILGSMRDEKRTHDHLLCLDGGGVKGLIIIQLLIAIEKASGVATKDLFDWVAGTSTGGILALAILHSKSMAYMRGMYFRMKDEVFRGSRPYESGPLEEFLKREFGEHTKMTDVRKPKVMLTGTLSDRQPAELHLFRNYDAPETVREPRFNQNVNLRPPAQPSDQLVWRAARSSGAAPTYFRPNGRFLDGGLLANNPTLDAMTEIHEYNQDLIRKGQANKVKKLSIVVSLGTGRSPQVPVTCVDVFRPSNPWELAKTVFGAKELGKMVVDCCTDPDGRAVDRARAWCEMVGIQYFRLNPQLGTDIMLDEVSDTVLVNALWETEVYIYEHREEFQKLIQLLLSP
The assay is described as follows: mixed micelle modified Dole assay, GVIA iPLA2. The following applies: read-out: IC50 (converted from XI(50)); 0.091 mole fraction corresponds to 50 μM. It counts as biochemical.

One may read the IC50 as the midpoint of a concentration-inhibition curve. Consider `CCCCCCCCSCC(=O)C(F)(F)F` [Compound 3], for which the concentration for half-maximal inhibition (IC50) worked out at 110 nM.
